Source: ChEMBL document CHEMBL1240439, “Synthesis and docking studies of novel benzopyran-2-ones with anticancer activity” (2010)
Activity calls are given as the source filed them.

Tests used:
Type in all cases: functional
[1] = tested on: HCT-15; assay: Cytotoxicity against human HCT15 cells assessed as cell growth at 10 uM after 48 hrs by sulforhodamine B assay
[2] = tested on: CCRF-CEM; assay: Cytotoxicity against human CCRF-CEM cells assessed as cell growth at 10 uM after 48 hrs by sulforhodamine B assay
[3] = tested on: BT-549; assay: Cytotoxicity against human BT549 cells assessed as cell growth at 10 uM after 48 hrs by sulforhodamine B assay
[4] = tested on: SK-MEL-28; assay: Cytotoxicity against human SK-MEL-28 cells assessed as cell growth at 10 uM after 48 hrs by sulforhodamine B assay
[5] = tested on: OVCAR-4; assay: Cytotoxicity against human OVCAR4 cells assessed as cell growth at 10 uM after 48 hrs by sulforhodamine B assay
[6] = tested on: SK-MEL-2; assay: Cytotoxicity against human SK-MEL-2 cells assessed as cell growth at 10 uM after 48 hrs by sulforhodamine B assay
[7] = tested on: Malme-3M; assay: Cytotoxicity against human MALME-3M cells assessed as cell growth at 10 uM after 48 hrs by sulforhodamine B assay
[8] = tested on: KM12; assay: Cytotoxicity against human KM12 cells assessed as cell growth at 10 uM after 48 hrs by sulforhodamine B assay
[9] = tested on: SNB-19; assay: Cytotoxicity against human SNB19 cells assessed as cell growth at 10 uM after 48 hrs by sulforhodamine B assay
[10] = tested on: HT-29; assay: Cytotoxicity against human HT-29 cells assessed as cell growth at 10 uM after 48 hrs by sulforhodamine B assay
[11] = tested on: HCC 2998; assay: Cytotoxicity against human HCC2998 cells assessed as cell growth at 10 uM after 48 hrs by sulforhodamine B assay
[12] = tested on: NCI-H460; assay: Cytotoxicity against human NCI-H460 cells assessed as cell growth at 10 uM after 48 hrs by sulforhodamine B assay
[13] = tested on: NCI-H226; assay: Cytotoxicity against human NCI-H226 cells assessed as cell growth at 10 uM after 48 hrs by sulforhodamine B assay
[14] = tested on: HL-60(TB); assay: Cytotoxicity against human HL-60(TB) cells assessed as cell growth at 10 uM after 48 hrs by sulforhodamine B assay
[15] = tested on: M14; assay: Cytotoxicity against human M14 cells assessed as cell growth at 10 uM after 48 hrs by sulforhodamine B assay
[16] = tested on: HOP-62; assay: Cytotoxicity against human HOP62 cells assessed as cell growth at 10 uM after 48 hrs by sulforhodamine B assay
[17] = tested on: SK-OV-3; assay: Cytotoxicity against human SKOV3 cells assessed as cell growth at 10 uM after 48 hrs by sulforhodamine B assay
[18] = tested on: SW-620; assay: Cytotoxicity against human SW620 cells assessed as cell growth at 10 uM after 48 hrs by sulforhodamine B assay
[19] = tested on: DU-145; assay: Cytotoxicity against human DU145 cells assessed as cell growth at 10 uM after 48 hrs by sulforhodamine B assay
[20] = tested on: A549; assay: Cytotoxicity against human A549 cells assessed as cell growth at 10 uM after 48 hrs by sulforhodamine B assay
[21] = tested on: EKVX; assay: Cytotoxicity against human EKVX cells assessed as cell growth at 10 uM after 48 hrs by sulforhodamine B assay
[22] = tested on: NCI-H322M; assay: Cytotoxicity against human NCI-H322M cells assessed as cell growth at 10 uM after 48 hrs by sulforhodamine B assay
[23] = tested on: K562; assay: Cytotoxicity against human K562 cells assessed as cell growth at 10 uM after 48 hrs by sulforhodamine B assay
[24] = tested on: SR; assay: Cytotoxicity against human SR cells assessed as cell growth at 10 uM after 48 hrs by sulforhodamine B assay
[25] = tested on: RPMI-8226; assay: Cytotoxicity against human RPMI8226 cells assessed as cell growth at 10 uM after 48 hrs by sulforhodamine B assay
[26] = tested on: SK-MEL-5; assay: Cytotoxicity against human SK-MEL-5 cells assessed as cell growth at 10 uM after 48 hrs by sulforhodamine B assay
[27] = tested on: MDA-MB-435; assay: Cytotoxicity against human MDA-MB-435 cells assessed as cell growth at 10 uM after 48 hrs by sulforhodamine B assay
[28] = tested on: PC-3; assay: Cytotoxicity against human PC3 cells assessed as cell growth at 10 uM after 48 hrs by sulforhodamine B assay
[29] = tested on: U-251; assay: Cytotoxicity against human U251 cells assessed as cell growth at 10 uM after 48 hrs by sulforhodamine B assay
[30] = tested on: SF-268; assay: Cytotoxicity against human SF268 cells assessed as cell growth at 10 uM after 48 hrs by sulforhodamine B assay
[31] = tested on: OVCAR-3; assay: Cytotoxicity against human OVCAR-3 cells assessed as cell growth at 10 uM after 48 hrs by sulforhodamine B assay
[32] = tested on: Hs-578T; assay: Cytotoxicity against human Hs 578T cells assessed as cell growth at 10 uM after 48 hrs by sulforhodamine B assay
[33] = tested on: MOLT-4; assay: Cytotoxicity against human MOLT4 cells assessed as cell growth at 10 uM after 48 hrs by sulforhodamine B assay
[34] = tested on: 786-0; assay: Cytotoxicity against human 786-0 cells assessed as cell growth at 10 uM after 48 hrs by sulforhodamine B assay
[35] = tested on: HOP-92; assay: Cytotoxicity against human HOP92 cells assessed as cell growth at 10 uM after 48 hrs by sulforhodamine B assay
[36] = tested on: RXF 393; assay: Cytotoxicity against human RXF393 cells assessed as cell growth at 10 uM after 48 hrs by sulforhodamine B assay
[37] = tested on: MDA-MB-468; assay: Cytotoxicity against human MDA-MB-468 cells assessed as cell growth at 10 uM after 48 hrs by sulforhodamine B assay
[38] = tested on: UO-31; assay: Cytotoxicity against human UO31 cells assessed as cell growth at 10 uM after 48 hrs by sulforhodamine B assay
[39] = tested on: UACC-62; assay: Cytotoxicity against human UACC62 cells assessed as cell growth at 10 uM after 48 hrs by sulforhodamine B assay
[40] = tested on: A498; assay: Cytotoxicity against human A498 cells assessed as cell growth at 10 uM after 48 hrs by sulforhodamine B assay
[41] = tested on: SNB-75; assay: Cytotoxicity against human SNB75 cells assessed as cell growth at 10 uM after 48 hrs by sulforhodamine B assay
[42] = tested on: LOX IMVI; assay: Cytotoxicity against human LOXIMVI cells assessed as cell growth at 10 uM after 48 hrs by sulforhodamine B assay
[43] = tested on: SN12C; assay: Cytotoxicity against human SN12C cells assessed as cell growth at 10 uM after 48 hrs by sulforhodamine B assay
[44] = tested on: OVCAR-5; assay: Cytotoxicity against human OVCAR5 cells assessed as cell growth at 10 uM after 48 hrs by sulforhodamine B assay
[45] = tested on: IGROV-1; assay: Cytotoxicity against human IGROV1 cells assessed as cell growth at 10 uM after 48 hrs by sulforhodamine B assay
[46] = tested on: ACHN; assay: Cytotoxicity against human ACHN cells assessed as cell growth at 10 uM after 48 hrs by sulforhodamine B assay
[47] = tested on: OVCAR-8; assay: Cytotoxicity against human OVCAR8 cells assessed as cell growth at 10 uM after 48 hrs by sulforhodamine B assay
[48] = tested on: SF-295; assay: Cytotoxicity against human SF295 cells assessed as cell growth at 10 uM after 48 hrs by sulforhodamine B assay
[49] = tested on: HCT-116; assay: Cytotoxicity against human HCT116 cells assessed as cell growth at 10 uM after 48 hrs by sulforhodamine B assay
[50] = tested on: UACC-257; assay: Cytotoxicity against human UACC257 cells assessed as cell growth at 10 uM after 48 hrs by sulforhodamine B assay
[51] = tested on: T47D; assay: Cytotoxicity against human T47D cells assessed as cell growth at 10 uM after 48 hrs by sulforhodamine B assay
[52] = tested on: TK-10; assay: Cytotoxicity against human TK10 cells assessed as cell growth at 10 uM after 48 hrs by sulforhodamine B assay
[53] = tested on: NCI-H23; assay: Cytotoxicity against human NCI-H23 cells assessed as cell growth at 10 uM after 48 hrs by sulforhodamine B assay
[54] = tested on: NCI-H522; assay: Cytotoxicity against human NCI-H522 cells assessed as cell growth at 10 uM after 48 hrs by sulforhodamine B assay
[55] = tested on: COLO 205; assay: Cytotoxicity against human COLO205 cells assessed as cell growth at 10 uM after 48 hrs by sulforhodamine B assay
[56] = tested on: MCF7; assay: Cytotoxicity against human MCF7 cells assessed as cell growth at 10 uM after 48 hrs by sulforhodamine B assay
[57] = tested on: SF-539; assay: Cytotoxicity against human SF539 cells assessed as cell growth at 10 uM after 48 hrs by sulforhodamine B assay
[58] = tested on: MDA-MB-231; assay: Cytotoxicity against human MDA-MB-231 cells assessed as cell growth at 10 uM after 48 hrs by sulforhodamine B assay

Measured: Activity

CCCc1cc(=O)oc2c(C)c(OCc3nnc(S)o3)ccc12
inactive: all assays above

CSc1nnc(COc2ccc3c(-c4ccccc4)cc(=O)oc3c2C)o1
inactive: all assays above
